The values that follow are results of earlier work, collected in patent EP1550371A2, “Pesticidal compositions comprising an oxathiin and triazole fungicides” (Tovarystvo z obmegenoyu vidpovidalnistyu "Prezence", priority 2003, dated 2005).

Series [1] has as its system rats. Conditions: in rats.
For series [2] the following is noted: at 25 °C.
In a further series the test system is rabbits. Conditions: in rabbits.
Series [3] relates to rats. To be noted: in rats. The source holds these as a separate data set.
The test system of a further series is mice. Conditions: in mice.
A further series deals with quails. To be noted: in quails.
A further series relates to powdery mildew and rust. Conditions: in experiments.

Take `CC1=C(C(=O)Nc2ccccc2)SCCO1` [Carboxin, 5,6-dihydro-2-methyl-1,4-oxathiin-3-carboxanyl]: the “oral LD50” value in the series with rats [1] was 3800 mg/kg. Further, in series [2], the Solubility in acetone is 60%, the Solubility in dimethylsulfoxide is listed as 150%, the “Solubility in ethyl alcohol” value is given as 21% and the Solubility in gasoline is 15%. In series [2], the “Solubility in methyl alcohol” value is reported as 21% and the Solubility in water is on record as 0.017%. The “skin-resorptive LD50” value with rabbits is reported as “above 8 g/kg”.
For `CC(C)(C)C(O)(CCc1ccc(Cl)cc1)Cn1cncn1` (stereo not shown) [Tebuconazol, RS-1-(4-chlorophenyl)-4,4-dimethyl-3-(1H-1,2,4-triazol-1-ilmethyl) pentan-3-ol], the “oral LD50” value was 3900 to 5000 mg/kg with rats [1] and 1600 to 3900 mg/kg with mice. The skin-resorbtive toxicity result in the series with rats [3] is reported as “above 5 g/kg”.
On to `CC(C)(C)C(O)C(Oc1ccc(Cl)cc1)n1cncn1` (stereo not shown) [Triadimenol], for which the “oral LD50” value in the series with rats [1] was 700 to 1500 mg/kg; in the series with quails, 10000 mg/kg; in the series with mice, 1300 mg/kg. Further, the skin-resorbtive toxicity result with rats [3] is listed as “above 5 g/kg”. In addition, the “Protective systemic action against powdery mildew and rust” value with powdery mildew and rust was 4 to 8 days.
